The source of these data is patent publication US4045298A, “Antibiotic XK-62-2 and process for production thereof” (priority 1972, dated 1977).

Data set [1] concerns Bacillus subtilis No. 10707. The data set can be described thus: Activity (unit/mg) of isolated preparations; paper disk method using an agar plate. In kind it is cell-based. On the procedure: After the completion of fermentation, the culture liquor is adjusted to a pH of 2.0 with 12N sulfuric acid and stirred for 30 minutes. Then, about 10 kg of a filter aid, Radiolite No. 600 (product of Showa Kagaku Kogyo Co., Ltd., Japan) is added thereto and the microbial cells are removed by filtration. The filtrate is adjusted to a pH of 8.0 with 6N sodium hydroxide and passed through a column packed with about 50 l of a cation exchange resin, Amberlite IRC-50 (ammonia form). The active substance is adsorbed on the resin and the eluate is discarded. After washing the resin with water, the active substance is eluted out with 1N aqueous ammonia.
Active fractions are combined and concentrated in vacuo to about 5 l. The concentrate is then adjusted to a pH of 8.0 with 6N sulfuric acid and passed through a column packed with 1 l of an anion exchange resin, Dowex 1×2 (OH^- form). The column is washed with about 5 l of water and the effluent and the washings containing active substance are combined and are concentrated to 1/15 by volume. […] The resultant precipitate is removed by filtration and the filtrate is concentrated to 500 ml. The concentrate is adjusted to a pH of 4.5 with 6N sulfuric acid and 2.5 l of methanol is added thereto. […] The precipitate is separated by filtration and washed with methanol.
After the completion of fermentation, the culture liquor is adjusted to a pH of 2.0 with 12N sulfuric acid and stirred for 30 minutes. Then, about 10 kg of Radiolite No. 600 (trade name) is added thereto and the microbial cells are removed by filtration. The filtrate is adjusted to a pH of 8.0 with 6N sodium hydroxide and passed through a column packed with about 50 l of a cation exchange resin, Amberlite IRC-50 (ammonia form). The eluate is discarded. After washing the resin with water, the active substance is eluted out with 1N aqueous ammonia.

Data set [2] relates to Pseudomonas aeruginosa KY 8516. Nature of the data set: Minimum inhibitory concentration by agar dilution method. The class given is cell-based. The settings on record: Pseudomonas aeruginosa, KY8516; agar dilution; clinical isolate; Table 7. From the text: (§1) Minimum inhibitory concentration
(§2) (γ/ml : by agar dilution method)
In general terms: In agar dilution, organisms are placed on agar that contains the substance at set levels.

For data set [3], the system named is Pseudomonas aeruginosa KY 8562. The data set is described as above. In kind it is cell-based. The settings on record: KY8562, clinical isolate, Table 7.
Description: as §1, §2

In data set [4] the test system is Pseudomonas aeruginosa KY 4276. Described as above. In kind it is cell-based. The settings on record: KY4276, clinical isolate, Table 7.
Description: as §1, §2

For data set [5], the system named is Pseudomonas aeruginosa KY 8515. Described as above. To be noted: KY8515, clinical isolate, Table 7. The class given is cell-based.
Description: as §1, §2

Data set [6] relates to Pseudomonas aeruginosa KY 8511. The description is as above. The class given is cell-based. The settings on record: KY8511, clinical isolate, Table 7.
Description: as §1, §2

Data set [7] concerns Pseudomonas aeruginosa KY 8520. The data set is described as above. The class given is cell-based. The settings on record: KY8520, clinical isolate, Table 7.
Description: as §1, §2

In data set [8] the test system is Pseudomonas aeruginosa KY 8514. Described as above. The class given is cell-based. To be noted: KY8514, clinical isolate, Table 7.
Description: as §1, §2

The subject of data set [9] is Pseudomonas aeruginosa KY 8510. Described as above. The class given is cell-based. To be noted: Pseudomonas aeruginosa, KY8510; agar dilution; clinical isolate; Table 7.
Description: as §1, §2

The test system of data set [10] is Pseudomonas aeruginosa KY 8512. Described as above. The class given is cell-based. The settings on record: KY8512, clinical isolate, Table 7.
Description: as §1, §2

In data set [11] the test system is Proteus vulgaris ATCC 6897. The description is as above. In kind it is cell-based. The settings on record: ATCC6897, read-out: Minimum inhibitory concentration.
Description: Antibacterial spectra of XK-62-2 by agar
(§3) The comparative in vitro activities of these antibiotics against various microorganisms of the genus Proteus are shown in the following Table 6.
as §1, §2

In another data set the test system is Proteus mirabilis No. 39. The data set is described as above. The class given is cell-based. The settings on record: NO.39, read-out: Minimum inhibitory concentration.
Description: as §3, §1, §2

Data set [12] has as its system Proteus mirabilis Finland 9. Described as above. The class given is cell-based. To be noted: FINLAND9, read-out: Minimum inhibitory concentration.
Description: as §3, §1, §2

In data set [13] the test system is Proteus mirabilis No. 825. Described as above. In kind it is cell-based. To be noted: NO.825, read-out: Minimum inhibitory concentration.
Description: as §3, §1, §2

Data set [14] deals with Proteus rettgeri Hambrook. Described as above. To be noted: Providencia rettgeri, read-out: Minimum inhibitory concentration. In kind it is cell-based.
Description: as §3, §1, §2

The next data set has as its system Proteus rettgeri Booth. Described as above. The settings on record: Providencia rettgeri, read-out: Minimum inhibitory concentration. In kind it is cell-based.
Description: as §3, §1, §2

Data set [15] deals with Proteus vulgaris Abbott JJ. The data set is described as above. The class given is cell-based. The settings on record: read-out: Minimum inhibitory concentration.
Description: as §3, §1, §2

Another data set has as its system Proteus morganii Jenkins. Described as above. The class given is cell-based. To be noted: Morganella morganii, read-out: Minimum inhibitory concentration.
Description: as §3, §1, §2

The subject of data set [16] is specific enzyme system which inactivates gentamicin C1a or kanamycin by acetylating. The class given is biochemical, Pseudomonas aeruginosa. To be noted: acetylating enzyme of KY 8510 and 8516 strains.
A short description of the next data set: Solubility. The class given is physicochemical.
Where [17] appears, read: Example 2, free base, Mm-628 ATCC 21827.
Setting [18] is: Example 6, free base, Micromonospora purpurea ATCC 15835.
The mark [19] stands for this setting: Example 7, free base, Micromonospora echinospora ATCC 15837 NRRL 2985.
Setting [20] is: Example 7, free base, Micromonospora echinospora var. ferruginea NRRL 2995.
Setting [21] is: Example 7, free base, Micromonospora echinospora var. pallida NRRL 2996.

Converted amounts (≈) assume the structure as drawn. “Also recorded” adds a separate entry of the source.

For `CN[C@@H]1[C@@H](O)[C@@H](O[C@@H]2[C@@H](O)[C@H](O[C@H]3O[C@H]([C@@H](C)NC)CC[C@H]3N)[C@@H](N)C[C@H]2N)OC[C@]1(C)O` [gentamicin C1, reference compound], the Activity in [1] (setting [17]) was 880 unit/mg; in data set [1] (setting [18]), 821 unit/mg; in data set [1] (setting [19]) it was 906 unit/mg; in [1] (setting [20]), 830 unit/mg; in data set [1] (setting [21]) it was 940 unit/mg.

On to `CN[C@@H]1[C@@H](O)[C@@H](O[C@@H]2[C@@H](O)[C@H](O[C@H]3O[C@H]([C@@H](C)N)CC[C@H]3N)[C@@H](N)C[C@H]2N)OC[C@]1(C)O` [gentamicin C2, reference compound], for which the Activity in data set [1] (setting [17]) was determined as 925 unit/mg; in data set [1] (setting [18]), 880 unit/mg; in data set [1] (setting [19]), 845 unit/mg; in data set [1] (setting [20]), 853 unit/mg; in data set [1] (setting [21]), 859 unit/mg.

Consider `[H]/N=C(/N)N[C@H]1[C@H](O)[C@@H](O)[C@H](O[C@@H]2O[C@@H](C)[C@](O)(C=O)[C@H]2O[C@@H]2O[C@@H](CO)[C@H](O)[C@@H](O)[C@@H]2NC)[C@@H](N/C(N)=N\[H])[C@@H]1O` [streptomycin], for which the MIC in data set [2] is 0.65 µg/mL (≈ 1.12 µM); in [3], 156 µg/mL (≈ 268 µM); in data set [4], 2.6 µg/mL (≈ 4.47 µM); in data set [5], 624 µg/mL (≈ 1070 µM); in data set [6], greater than 2500 µg/mL; in [7], 5.2 µg/mL (≈ 8.94 µM). The MIC in [8] was 156 µg/mL (≈ 268 µM); in [9], 0.65 µg/mL (≈ 1.12 µM); in [10], 42 µg/mL (≈ 72.2 µM); in [11], greater than 40 µg/mL; in the data set with Proteus mirabilis No. 39 it was greater than 40 µg/mL; in data set [12], greater than 40 µg/mL. Besides, the MIC (in [13]; in data set [14]; in the data set on Proteus rettgeri Booth; in data set [15]; with Proteus morganii Jenkins) was greater than 40 µg/mL in each case.

Take `NC[C@H]1O[C@H](O[C@H]2[C@H](O)[C@@H](O[C@H]3O[C@H](CO)[C@@H](O)[C@H](N)[C@H]3O)[C@H](N)C[C@@H]2N)[C@H](O)[C@@H](O)[C@@H]1O` [kanamycin]: the MIC was found to be 26 µg/mL (≈ 53.7 µM) in [2]; 167 µg/mL (≈ 345 µM) in data set [3]; 1.63 µg/mL (≈ 3.36 µM) in data set [4]; 416 µg/mL (≈ 859 µM) in data set [5]; 13 µg/mL (≈ 26.8 µM) in data set [6]; 104 µg/mL (≈ 215 µM) in data set [7]. The MIC came to 208 µg/mL (≈ 429 µM) in data set [8]; 13 µg/mL (≈ 26.8 µM) in data set [9]; 3.3 µg/mL (≈ 6.81 µM) in data set [10]; 0.34 µg/mL (≈ 0.702 µM) in [11]; 0.33 µg/mL (≈ 0.681 µM) with Proteus mirabilis No. 39; 0.04 µg/mL (≈ 0.0826 µM) in data set [12]. Also, the MIC in [13] was 0.04 µg/mL (≈ 0.0826 µM); in data set [14] it was 0.08 µg/mL (≈ 0.165 µM); with Proteus rettgeri Booth it was 0.08 µg/mL (≈ 0.165 µM); in data set [15], 0.16 µg/mL (≈ 0.33 µM); with Proteus morganii Jenkins, 0.16 µg/mL (≈ 0.33 µM). Also, the “Inactivation by acetylation (6'-NH2)” value in data set [16] was “inactivates”.

As for `CNC[C@@H]1CC[C@@H](N)[C@@H](O[C@H]2[C@H](O)[C@@H](O[C@H]3OC[C@](C)(O)[C@H](NC)[C@H]3O)[C@H](N)C[C@@H]2N)O1` [sulfate of XK-62-2], the Solubility in acetone result in the data set “Solubility” (acetone) was “insoluble”. Further, in the data set “Solubility” (methanol), the Solubility in methanol entry is on record as “poorly soluble; also recorded: insoluble”. Besides, the Solubility in water entry in the data set “Solubility” (water) was “very soluble”. Also, the Activity in data set [1] (Example 4, sulfate) came out at 792 unit/mg.
